This is an account of results in patent publication US20160178610A1, “New screening method for the treatment Friedreich's ataxia” (FRIEDRICH MIESCHER INSTITUTE FOR BIOMEDICAL RESEARCH, priority 2013, published 2016).

Each structure is given as a SMILES string.

The test system of data set [1] is FRDA-iPSC-derived neurons. As to the kind of experiment: Neuron viability / compound toxicity in FRDA-iPSC-derived neuron cultures. It is filed as cell-based, human. The following applies: even at 10 μM. As to the method: (§1) FIG. 1: Exposure of FRDA-iPSC-derived neurons to [2,6] Naphtyhyridine is the cyclohexyl-[4-(4-phenyl-1-piperazin-1-yl-[2,6]naphthyridin-3-yl)pyridin-2-yl]amine, a chemical inhibitor of PRKD1, leads to an increase in FXN expression while a control compound has no effect. […] FXN mRNA levels were determined by real-time RT-PCR, normalized to RPL13A mRNA levels. *P=0.03.
Importantly, treatment with the compound of formula (II) led to a 25% increase in FXN mRNA expression in FRDA neurons after only 3 weeks of treatment. […] In addition, neuron viability was not affected by exposure to the compound of formula (II), even at 10 μM.

Data set [2] concerns endogenous FXN gene expression in FRDA-iPSC-derived neurons. Put plainly: FXN mRNA levels in FRDA-iPSC-derived neurons by real-time RT-PCR, normalized to RPL13A. Particulars: for effect on FXN expression: FRDA-iPSC-derived neurons, treated for 3 weeks, five concentrations, biological duplicates. It is filed as cell-based, human. As to the method:
as §1
For quantitative RT-PCR (qRT-PCR) experiments, total RNA was extracted from GM04078, FRDA-4078iBT, and HEK293T-FF2AP cell lines with the Absolutely RNA Microprep Kit (Stratagene). A 1-μg aliquot of total RNA was reverse transcribed with AffinityScript enzyme (Stratagene) using random hexamers according to the manufacturer's instructions. qRT-PCR was performed on a CFX96 Real-Time PCR System (Bio-Rad) using the SsoAdvanced SYBR Green Supermix (Bio-Rad, #172-5264). Relative RNA levels were calculated from CT values according to the ΔCT method and normalized to GAPDH mRNA or 18S rRNA levels. Reprogrammed cells were washed once and total RNA isolated using TRIzol (Life Technologies). After chloroform extraction, RNA was purified using a RNeasy Plus Kit (Qiagen, Germantown, Md.). RNA purity and concentration were verified using an Aligent 2100 Bioanalyzer (Santa Clara, Calif.). […]
Endoderm: Accutase was used for cell dissociation to single cells, which were then plated on matrigel in mTeSR with rock-inhibitor Y27632 (Calbiochem, Darmstadt, Germany) at a density of 100×10^3 per cm^2. […] In order to quantify the efficiency of differentiation into Pax6-expressing neural progenitors, immunostained cultures were generated and the percentage of Pax6-positive and DAPI-positive cells determined in 10 randomly selected microscopic fields. In order to quantify the efficiency of differentiation into β-III Tubulin-expressing neurons, a similar approach was used with cultures previously treated with cytosine-1-β-D-arabinofuranoside to prevent the expansion of neural progenitors. […]
In general terms: Real-time PCR tracks product formation cycle by cycle.

In the case of `c1ccc(-c2c(-c3ccnc(NC4CCCCC4)c3)nc(N3CCNCC3)c3ccncc23)cc1` [compound of formula (II), cyclohexyl-[4-(4-phenyl-1-piperazin-1-yl-[2,6]naphthyridin-3-yl)pyridin-2-yl]amine], the neuron viability result in data set [1] was “not affected”. For the same molecule, the “increase in FXN mRNA expression” value in data set [2] (FRDA neurons, after 3 weeks of treatment) came to 25%. Also, the “effect on FXN expression” value in data set [2] was “significant increase”; in data set [2] (listed as cyclohexyl-[4-(4-phenyl-1-piperazin-1-yl-[2,6]naphthyridin-3-yl)pyridin-2-yl]ami), “increase”.
